Reference: PubChem BioAssay AID2060902 (Molecular Pharmacology Branch, DTP, NCI, 2025)
Values joined by “and” are separate entries in the source; they are usually repeats but may differ in a detail not shown here. Equal entries are not always repeated.

Tested on: 485368-065-R3-J5-PDC spheroids with HUVEC/MSC, viability
Test: Anticancer human tumor 485368-065-R3-J5-PDC patient-derived pancreatic carcinoma cell line growth inhibition [RAS]
Details: for viability, T/C: stronger effect = lower value
In short: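 Agents were tested in combination matrices in half-log decrements from a top concentration at or near clinical Cmax (10 microM if undetermined). Targets were multi-cell spheroids of tumour lines plus HUVEC and MSC stromal cells.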

[1] = curve of first compound, second compound 0.0316 µM
[2] = curve of first compound, second compound 0.1 µM
[3] = curve of first compound, second compound 0.316 µM
[4] = curve of first compound, second compound 1 µM
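Further: spheroids exposed to agents for seven days before readout.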

CCc1c2c(nc3ccc(O)cc13)-c1cc3c(c(=O)n1C2)COC(=O)[C@]3(O)CC + C#Cc1c(F)ccc2cc(O)cc(-c3ncc4c(N5CC6CCC(C5)N6)nc(OCC56CCCN5CC(F)C6)nc4c3F)c12
IC50 [1]: 2.01 nM
IC50 [2]: 2.04 nM
IC50 [3]: 2.04 nM
IC50 [4]: 2.19 nM
IC50 (curve of first compound, second compound 3.16 µM): 1.66 nM
IC50 (curve of first compound, second compound 10 µM): < 0.949 nM
viability, T/C (second compound 0.0316 µM, first compound 0.000949 µM): 79.6%
viability, T/C (second compound 0.0316 µM, first compound 0.003 µM): 34%
viability, T/C (second compound 0.0316 µM, first compound 0.00949 µM): 14.3%
viability, T/C (second compound 0.0316 µM, first compound 0.03 µM): 7.01%
viability, T/C (second compound 0.0316 µM, first compound 0.0949 µM): 5.19%
viability, T/C (second compound 0.0316 µM, first compound 0.3 µM): 2.88%
viability, T/C (second compound 0.1 µM, first compound 0.000949 µM): 82.5%
viability, T/C (second compound 0.1 µM, first compound 0.003 µM): 33.7%
viability, T/C (second compound 0.1 µM, first compound 0.00949 µM): 12.5%
viability, T/C (second compound 0.1 µM, first compound 0.03 µM): 7.37%
viability, T/C (second compound 0.1 µM, first compound 0.0949 µM): 4.36%
viability, T/C (second compound 0.1 µM, first compound 0.3 µM): 3.26%
viability, T/C (second compound 0.316 µM, first compound 0.000949 µM): 82.5%
viability, T/C (second compound 0.316 µM, first compound 0.003 µM): 33.4%
viability, T/C (second compound 0.316 µM, first compound 0.00949 µM): 13.3%
viability, T/C (second compound 0.316 µM, first compound 0.03 µM): 5.82%
viability, T/C (second compound 0.316 µM, first compound 0.0949 µM): 5.07%
viability, T/C (second compound 0.316 µM, first compound 0.3 µM): 3.14%
viability, T/C (second compound 1 µM, first compound 0.000949 µM): 91.2%
viability, T/C (second compound 1 µM, first compound 0.003 µM): 33.6%
viability, T/C (second compound 1 µM, first compound 0.00949 µM): 14.8%
viability, T/C (second compound 1 µM, first compound 0.03 µM): 6.95%
viability, T/C (second compound 1 µM, first compound 0.0949 µM): 4.29%
viability, T/C (second compound 1 µM, first compound 0.3 µM): 3.15%
viability, T/C (second compound 3.16 µM, first compound 0.000949 µM): 71.5%
viability, T/C (second compound 3.16 µM, first compound 0.003 µM): 26.7%
viability, T/C (second compound 3.16 µM, first compound 0.00949 µM): 12.9%
viability, T/C (second compound 3.16 µM, first compound 0.03 µM): 7.69%
viability, T/C (second compound 3.16 µM, first compound 0.0949 µM): 4.04%
viability, T/C (second compound 3.16 µM, first compound 0.3 µM): 2.84%
viability, T/C (second compound 10 µM, first compound 0.000949 µM): 28.2%
viability, T/C (second compound 10 µM, first compound 0.003 µM): 19.4%
viability, T/C (second compound 10 µM, first compound 0.00949 µM): 11.2%
viability, T/C (second compound 10 µM, first compound 0.03 µM): 5.94%
viability, T/C (second compound 10 µM, first compound 0.0949 µM): 3.93%
viability, T/C (second compound 10 µM, first compound 0.3 µM): 3.41%

CC(C)NCC(C(=O)N1CCN(c2ncnc3c2C(C)CC3O)CC1)c1ccc(Cl)cc1 (stereo not drawn)
viability, T/C (compound 0.0316 µM): 104% and 101% (2×) and 98.3%
viability, T/C (compound 0.1 µM): 100% [middle of 4 runs]
viability, T/C (compound 0.316 µM): 94.8% [middle of 4 runs]
viability, T/C (compound 1 µM): 86.2% [middle of 4 runs]
viability, T/C (compound 3.16 µM): 77.1% [middle of 4 runs]
viability, T/C (compound 10 µM): 52.3% [middle of 4 runs]
IC50 (curve of compound): > 10000 nM and 8610 nM

CCc1c2c(nc3ccc(O)cc13)-c1cc3c(c(=O)n1C2)COC(=O)[C@]3(O)CC
viability, T/C (compound 0.000949 µM): 86.9% [middle of 4 runs]
viability, T/C (compound 0.003 µM): 34.5% [middle of 4 runs]
viability, T/C (compound 0.00949 µM): 14.6% [middle of 4 runs]
viability, T/C (compound 0.03 µM): 7.01% [middle of 4 runs]
viability, T/C (compound 0.0949 µM): 4.37% [middle of 4 runs]
viability, T/C (compound 0.3 µM): 3.18% [middle of 4 runs]
IC50 (curve of compound): 2.19 nM [middle of 4 runs]

Nc1ccn(C2OC(CO)C(O)C2(F)F)c(=O)n1 (stereo not drawn) + C=CC(=O)N1CCN(c2nc(OCC3CCCN3C)nc3c(F)c(-c4nc(N)cc(C)c4C(F)(F)F)c(Cl)cc23)C(C)C1
IC50 (curve of first compound, second compound 0.00316 µM): 6.42 nM
IC50 (curve of first compound, second compound 0.01 µM): 6.43 nM
IC50 [1]: 6.5 nM
IC50 [2]: 6.18 nM
IC50 [3]: 6.26 nM
IC50 [4]: 6.1 nM
viability, T/C (second compound 0.00316 µM, first compound 0.00316 µM): 107%
viability, T/C (second compound 0.00316 µM, first compound 0.01 µM): 14.7%
viability, T/C (second compound 0.00316 µM, first compound 0.0316 µM): 10.7%
viability, T/C (second compound 0.00316 µM, first compound 0.1 µM): 9.52%
viability, T/C (second compound 0.00316 µM, first compound 0.316 µM): 8.08%
viability, T/C (second compound 0.00316 µM, first compound 1 µM): 10.4%
viability, T/C (second compound 0.01 µM, first compound 0.00316 µM): 104%
viability, T/C (second compound 0.01 µM, first compound 0.01 µM): 16.8%
viability, T/C (second compound 0.01 µM, first compound 0.0316 µM): 9.83%
viability, T/C (second compound 0.01 µM, first compound 0.1 µM): 7.76%
viability, T/C (second compound 0.01 µM, first compound 0.316 µM): 10.4%
viability, T/C (second compound 0.01 µM, first compound 1 µM): 9.94%
viability, T/C (second compound 0.0316 µM, first compound 0.00316 µM): 103%
viability, T/C (second compound 0.0316 µM, first compound 0.01 µM): 18.4%
viability, T/C (second compound 0.0316 µM, first compound 0.0316 µM): 12.1%
viability, T/C (second compound 0.0316 µM, first compound 0.1 µM): 9.22%
viability, T/C (second compound 0.0316 µM, first compound 0.316 µM): 9.83%
viability, T/C (second compound 0.0316 µM, first compound 1 µM): 10.7%
viability, T/C (second compound 0.1 µM, first compound 0.00316 µM): 97%
viability, T/C (second compound 0.1 µM, first compound 0.01 µM): 16.3%
viability, T/C (second compound 0.1 µM, first compound 0.0316 µM): 9.86%
viability, T/C (second compound 0.1 µM, first compound 0.1 µM): 7.88%
viability, T/C (second compound 0.1 µM, first compound 0.316 µM): 9.19%
viability, T/C (second compound 0.1 µM, first compound 1 µM): 9.27%
viability, T/C (second compound 0.316 µM, first compound 0.00316 µM): 101%
viability, T/C (second compound 0.316 µM, first compound 0.01 µM): 15.3%
viability, T/C (second compound 0.316 µM, first compound 0.0316 µM): 8.44%
viability, T/C (second compound 0.316 µM, first compound 0.1 µM): 8.63%
viability, T/C (second compound 0.316 µM, first compound 0.316 µM): 9.97%
viability, T/C (second compound 0.316 µM, first compound 1 µM): 11%
viability, T/C (second compound 1 µM, first compound 0.00316 µM): 89.7%
viability, T/C (second compound 1 µM, first compound 0.01 µM): 20.2%
viability, T/C (second compound 1 µM, first compound 0.0316 µM): 11.6%
viability, T/C (second compound 1 µM, first compound 0.1 µM): 9.69%
viability, T/C (second compound 1 µM, first compound 0.316 µM): 11.4%
viability, T/C (second compound 1 µM, first compound 1 µM): 11.8%
